Assays:
Format in all cases: cell-based, human
EBC-1 = experiment: Cell proliferation, Cell-Titer Glo (CTG) assay, EBC-1; conditions: inhibitor concentration of 10 nM or more, 72 hours
Experimental: (§1) The 4 cell lines were seeded on a 96 well plate at the same amount (1×10^4 cells/well) and cultured for 24 hours (media: RPMI (Gibco, Invitrogen), culture conditions: 37° C., 5% CO2). The cultured cells were treated with representative c-Met inhibitor, crizotinib (Selleck chemical) and PHA665752((R,Z)-5-(2,6-dichlorobenzylsulfonyl)-3-((3,5-dimethyl-4-(2-(pyrrolidin-1-ylmethyl)pyrrolidine-1-carbonyl)-1H-pyrrol-2-yl)methylene)indolin-2-one), respectively. For comparison, human control IgG (chrompure human IgG (009-000-003, JACKSON IMMUNORESEARCH LABS INC.)) as a control and anti-c-Met antibody L3-1Y/IgG2 (Reference Example) were used respectively. Each of the inhibitors (or antibody) was treated at 10-fold serial diluted concentrations from 1000 nM to 0.01 nM. 72 hours after the treatment, the level of IL-8 in cell culture of each treatment group was assayed by Cytometric Bead Array (CBA) method using BD Cytometric Bead Array kit (see Example 1.1.2). In addition, in order to verify the anticancer efficacy of the c-Met inhibitors, the cell proliferation (%) was measured at 72 hours after c-Met inhibitor treatment through Cell-Titer Glo (CTG) assay.

Hs746T = experiment: Cell proliferation, Cell-Titer Glo (CTG) assay, Hs746T; conditions: inhibitor concentration of 10 nM or more, 72 hours
Experimental: as §1

Lovo = experiment: Cell proliferation, Cell-Titer Glo (CTG) assay, Lovo; conditions: 0.01 to 1000 nM, 72 hours
Experimental: as §1

HT29 = experiment: Cell proliferation, Cell-Titer Glo (CTG) assay, HT29; conditions: 0.01 to 1000 nM, 72 hours
Experimental: as §1

| Structure (SMILES) | cell proliferation (%) (EBC-1) | cell proliferation (%) (Hs746T) | cell proliferation (%) (Lovo) | cell proliferation (%) (HT29) |
| --- | --- | --- | --- | --- |
| Cc1[nH]c(/C=C2\C(=O)Nc3ccc(S(=O)(=O)Cc4c(Cl)cccc4Cl)cc32)c(C)c1C(=O)N1CCC[C@@H]1CN1CCCC1 [PHA665752, (R,Z)-5-(2,6-dichlorobenzylsulfonyl)-3-((3,5-dimethyl-4-(2-(pyrrolidin-1-ylmethyl)pyrrolidine-1-carbonyl)-1H-pyrrol-2-yl)methylene)indolin-2-one] | significantly inhibited | significantly inhibited | no significant decrease | no significant decrease |
| C[C@@H](Oc1cc(-c2cnn(C3CCNCC3)c2)cnc1N)c1c(Cl)ccc(F)c1Cl [crizotinib, 3-((R)-1-(2,6-dichloro-3-fluorophenyl)ethoxy)-5-(1-(piperidin-4-yl)-1H-pyrazol-4-yl)pyridin-2-amine] | significantly inhibited | significantly inhibited | no significant decrease | no significant decrease |

— patent US10393748B2, “Method for predicting efficacy of c-Met inhibitor” (Samsung Electronics Co., Ltd., priority 2014, dated 2019)
